{"source": "patent US20230265167A1", "about": "“COMPOSITIONS HAVING NEUROREGENERATIVE APPLICATIONS” (GRIFOLS WORLDWIDE OPERATIONS LIMITED, priority 2020, published 2023)", "key": {"[1]": {"tested_on": "SH-SY5Y cells", "experiment": "Neurite outgrowth (differentiation) in SH-SY5Y cells, Tubulin Tracker imaging", "format": "cell-based, human", "description": "Transferrin is utilized in cell culture and in-vivo to deliver iron as a nutrient to cells. This is typically accomplished through the actions of holo-transferrin (HoloTf) binding to, and endocytosis by, its cognate receptor CD71, the transferrin receptor 1 (TfR1). Transferrin is typically believed to provide cells with iron as a means to promote and sustain metabolic activity. […] Induction of neuronal differentiation was assessed by morphological parameters of neurite formation (a key element typically used as a marker of neuronal differentiation, neuronal health, and function) according to the procedures of Agholme, 2010. J. of Alzheimer's Disease. Vol. 20:1p 069-108; and Dyberg et al., 2017. PNAS Vol 114 (32), E6603-E6612.\nUndifferentiated SH-SY5Y cells were seeded into 96 well clear bottom plates in media containing 0.1% FBS. A serum-free base media was utilized as recommended by the supplier for SH-SY5Y cells (Sigma, Cat #94030304-1VL). Twenty-four hours after seeding cells, a 3× stock solution of ApoTf, final concentrations indicated on the x-axis, in serum free base media was added to the cells. ApoTf was obtained and purified from pooled human plasma and dosed at a final concentration of 0.2 mg/mL.\nCells were allowed to differentiate for 6 days. Neurite growth was assessed by imaging and image analysis. At the time of analysis, a 10× solution of Tubulin Tracker (Molecular Probes, T34075) and Hoechst 33342 (Molecular Probes #H3570) nuclear stain was prepared.\nBriefly, Tubulin Tracker dissolved in DMSO was diluted 1:1 with Pluronic F-127 and further diluted into HBSS to generate a 10× solution. Hoechst 33342 was added to the HBSS-Tubulin Tracker solution at 10 μg/mL to generate a 10× nuclear stain. The 10× staining solution (10 μL) was added directly to treated assay wells and incubated at 37° C. for 30 minutes. Following incubation, 110 μL of 0.4% Trypan Blue was added directly to assay wells and imaged on a Molecular Devices Nano imaging instrument. Nine images/well were acquired in the blue (Nuclei) and green (Tubulin) fluorescent channels for each image.\nAfter obtaining images, the MetaExpress Neurite Outgrowth analysis module (Molecular Devices) was used to identify cells, cell bodies, and quantify neurites. The total number of neurite branches were divided by the total number of cells imaged to account for different numbers of cells in each test well. The Outgrowth Fold Change was determined by setting the untreated control cells to a value of 1 with all other treatments shown relative to untreated control.\nUndifferentiated SH-SY5Y cells were seeded and treated as described in Example 1. Neurite growth was assessed by imaging and image analysis. At the time of analysis, a 10× solution of Tubulin Tracker (Molecular Probes, T34075) and Hoechst 33342 (Molecular Probes #H3570) nuclear stain was prepared. Briefly, Tubulin Tracker dissolved in DMSO was diluted 1:1 with Pluronic F-127 and further diluted into HBSS to generate a 10× solution. Hoechst 33342 was added to the HBSS-Tubulin Tracker solution at 10 μg/mL to generate at 10× nuclear stain. The 10× staining solution (10 μL) was added directly to treated assay wells and incubated at 37° C. for 30 minutes. Following incubation, 110 μL of 0.4% Trypan Blue was added directly to assay wells and imaged on a Molecular Devices Nano imaging instrument. Nine images/well were acquired in the blue (Nuclei) and green (Tubulin) fluorescent channels for each image. After obtaining images, the MetaExpress Neurite Outgrowth analysis module (Molecular Devices) was used to identify cell bodies and quantify neurites. The total number of neurite branches were divided by the total number of cells imaged to account for different numbers of cells. The Outgrowth Fold Change was determined by setting the untreated control to a value of 1 with all other treatments shown relative to untreated control. ApoTf was obtained and purified from pooled human plasma and dosed at a final concentration of 0.2 mg/mL. […]"}, "[2]": {"tested_on": "C57BL/6J mice with transient MCAo", "experiment": "Neuroscore recovery after transient MCAo", "format": "in vivo, mouse", "settings": "FIG. 10A, 3-14 days after MCAo, vs saline", "description": "(§1) C57BL/6J mice (ca. 20 g) were anaesthetized under isoflurane and, after dissection, a 6.0 silicon-coated monofilament suture was inserted into the external carotid artery to occlude the middle cerebral artery (MCAo). The occlusion was carried out for 60 minutes under temperature control.\n(§2) Only animals with a ‘neuroscore’ of 4 or greater were considered for further testing (n=8-10 animals/group). At six hours post-occlusion, mice were injected daily with 350 mg/kg of Apo-transferrin (i.p.) or an equal volume of saline for a total of seven days, as well as with 50 mg/kg Bromodeoxyuridine (BrdU; Sigma-Aldrich Chemical, St. Louis, Mo.), both articles delivered by intraperitoneal administration. Weight changes were monitored daily.\nMice were prepared as indicated in Example 9 above and were subjected to assessments at 3 days and 1, 2, 3, 4 weeks post-MCAo, as indicated (n=8-10 animals/group). Motor coordination (i.e. equilibrium behavior and locomotor ability as a function of cortico-striatal function) was assessed using a rotarod test. Learning and memory capacity were measured using the NORT (novel object recognition test; for example, Anglada-Huguet et al., 2014, Molecular Neurobiology, vol. 49, pages 784-795; Denninger et al., 2018, J. Vis. Exp., vol. 141, e58593). […]"}, "[3]": {"tested_on": "C57BL/6J mice with transient MCAo", "experiment": "Rotarod test after transient MCAo", "format": "in vivo, mouse", "settings": "FIG. 10B, vs saline", "description": "as §1, §2\nMice were prepared as indicated in Example 9 above and were subjected to assessments at 3 days and 1, 2, 3, 4 weeks post-MCAo, as indicated (n=8-10 animals/group). Motor coordination (i.e. equilibrium behavior and locomotor ability as a function of cortico-striatal function) was assessed using a rotarod test. Learning and memory capacity were measured using the NORT (novel object recognition test; for example, Anglada-Huguet et al., 2014, Molecular Neurobiology, vol. 49, pages 784-795; Denninger et al., 2018, J. Vis. Exp., vol. 141, e58593).\nThe time that it takes an animal to fall (Latency to fall) from the rotarod is shown vs time after MCAo. […]"}, "[4]": {"tested_on": "rat model of stroke", "settings": "vs control rats; cited from earlier work"}}, "note": "Entries after “also recorded” stand apart in the source; their conditions may differ."}
{"substance": "apo-transferrin: iron-free form of transferrin protein, obtained and purified from pooled human plasma", "values": [{"measurement": "neurite outgrowth (Outgrowth Fold Change)", "setting": "[1]; FIG. 1A, dose response up to 0.8 mg/mL, 6 days", "result": "able to induce neurite outgrowth in a dose dependent manner"}, {"measurement": "neurite/tubulin outgrowth, visual comparison to untreated control", "setting": "[1]; FIG. 1C, 0.1 mg/mL", "result": "promoting induction of neurite/tubulin outgrowth"}, {"measurement": "neurite outgrowth / differentiation versus concentration", "setting": "[1]; FIG. 3A, DFO versus ApoTf", "result": "continues to increase differentiation even up to 9.9 μM"}, {"measurement": "neurogenesis (neurite outgrowth) of SH-SY5Y", "setting": "[1]; FIG. 3B, proteins at 0.2 mg/mL", "result": "did induce neurogenesis"}, {"measurement": "neurogenic effect, ApoTf in combination with Y-27632", "setting": "[1]; FIG. 8, ApoTf 0.1 mg/mL plus Y-27632 50 μM", "result": "the neurogenic effect was synergistic"}, {"measurement": "differentiation / neurite outgrowth, combination with neurotrophic factors", "setting": "[1]; FIGS. 7A-7D, ApoTf 0.1 mg/mL plus factor", "result": "synergistic effect"}, {"measurement": "rate of recovery (percentage of animals with neuroscore 0)", "setting": "[2]", "result": "quicker recovery"}, {"measurement": "rate of recovery (percentage of animals with neuroscore 0)", "setting": "[2]; listed as ApoTf", "result": "significantly improves the rate at which the animals recover"}, {"measurement": "motor and balance skills (Latency to fall from rotarod)", "setting": "[3]", "result": "better motor skills; also recorded: increased motor and balance skills"}, {"measurement": "motor and balance skills (Latency to fall from rotarod)", "setting": "[3]; listed as apoTf", "result": "better overall abilities to remain on the rotarod"}, {"measurement": "volume of the infarcted area (neuroprotective effect)", "setting": "[4]", "result": "decrease in the volume of the infarcted area"}]}
